Assay results taken from paper PMC12040169 (PLOS Biology, 2025).

test: in vitro; conditions: human, hela cells, % viability

Row | Structure (SMILES) | viability at 28.5 h, 10 µM
1 | O=C1C(C2CCN(Cc3ccc4ncccc4c3)CC2)CC=CCN1Cc1ccccc1 (stereo not shown) [CBK286269] | 108%
2 | CN(C)C(=O)C1(Cc2ccc(-c3cccs3)cc2)CCN(C(=O)c2ccccc2)CC1 [CBK286270] | 85.5%
3 | O=C(CCC1CCCCC1)N1CCC(c2n[nH]cc2C(=O)N2CCc3ccccc3C2)CC1 [CBK286271] | 95.4%
4 | COc1ccccc1OCc1cc(C)c(C(=O)N2CCN(C)CC2c2ccccc2)o1 (stereo not shown) [CBK286273] | 89.3%
5 | CCCNC(=O)C1(Cc2ccccc2-c2ccccc2)CCN(C(=O)c2ccccc2)CC1 [CBK286275] | 89.3%
6 | CN(Cc1ccccc1)CC(O)c1ccc2c(c1)CCCN2C(=O)c1ccccc1F (stereo not shown) [CBK286278] | 88.2%
7 | O=C1CCCC[C@@H]2[C@@H](N1)[C@H](c1ccccc1)CN2Cc1ccnc2ccccc12 [CBK286280] | 102%
8 | O=C(c1ccco1)N1CCC(c2nnc(-c3ccccc3)c(-c3ccccc3)n2)CC1 [CBK286282] | 86.4%
9 | COc1ccccc1-c1nnc(NCc2ccc3c(c2)OCO3)nc1-c1ccccc1OC [CBK286284] | 96.4%
10 | COc1ccc([C@H]2CN(Cc3ccccc3)[C@@H]3CCN(C(=O)Cc4ccccc4)C[C@H]23)cc1 [CBK286285] | 108%
11 | O=C(Nc1cccc(CCc2ccncc2)c1)C1CC(=O)N(Cc2ccncc2)C1 (stereo not shown) [CBK286287] | 89.6%
12 | CC(=O)NC1(c2ccccc2)CCN(C(=O)Nc2ccccc2-c2ccccc2)CC1 [CBK286288] | 94.9%
13 | O=C(c1ccccc1)N1C[C@H](c2ccc(F)cc2)[C@H]2CN(CCc3ccccc3)CC[C@H]21 [CBK286291] | 98.2%
14 | COc1cccc(CN2CC[C@@H]3[C@H](C2)[C@@H](c2ccc(F)cc2)CN3C(=O)c2ccccc2)c1 [CBK286292] | 107%
15 | O=C(Cc1ccc(-c2ccccc2)cc1)NCc1nnc(-c2cccs2)o1 [CBK286295] | 94.3%
16 | O=C(NCc1nnc(-c2cccs2)o1)C1c2ccccc2Oc2ccccc21 [CBK286297] | 94.8%
17 | Cc1ccc(-c2nnc(CNC(=O)c3ccccc3-c3ccccc3)o2)s1 [CBK286298] | 89.2%
18 | Cc1ccc(-c2nnc(CNC(=O)C(c3ccccc3)c3ccccc3)o2)s1 [CBK286299] | 102%
19 | Cc1ccc(-c2nnc(CNC(=O)c3cccc(-c4ccc(F)cc4)c3)o2)s1 [CBK286300] | 109%
20 | Cn1ncc(Cl)c1C1CCCCCN1S(=O)(=O)c1ccc2[nH]c(=O)[nH]c(=O)c2c1 (stereo not shown) [CBK286303] | 102%

Row | Structure (SMILES) | viability at 28.5 h, 10 µM
21 | O=C(CN1CCC(O)(Cn2cnc3ccccc32)CC1)c1ccc(-c2ccccc2)cc1 [CBK286306] | 86.8%
22 | O=C1NC2(CCN(C(=O)CC3c4ccccc4Oc4ccccc43)CC2)Nc2ccccc21 [CBK286307] | 98.8%
23 | CC(C(=O)N1CCC2(CC1)NC(=O)c1ccccc1N2)(c1ccccc1)c1ccccc1 [CBK286308] | 108%
24 | COc1cc2c(cc1OC)C1c3ccccc3NC(c3ccccc3F)N1CC2 (stereo not shown) [CBK286311] | 98.9%
25 | O=C(Cc1ccc(-c2ccccc2)cc1)N1CCc2nc3ccccc3c(=O)n2CC1 [CBK286312] | 97.2%
26 | O=C(c1ccco1)N1CCc2c([nH]c3ccccc23)C12CCN(Cc1ccccc1)CC2 [CBK286313] | 91%
27 | O=C(CC1c2ccccc2Oc2ccccc21)N1CCc2nc3ccccc3c(=O)n2CC1 [CBK286314] | 92.4%
28 | COc1ccccc1-c1ccc(CNC(Cc2ccsc2)c2nccs2)cc1 (stereo not shown) [CBK286315] | 86.7%
29 | CCN(CC)C(=O)CN1C(=O)[C@H]2CCCN2C(=O)c2ccccc21 [CBK286319] | 95.5%
30 | OC(CN1CCC(O)(c2ccc3c(c2)OCO3)CC1)c1ccc2c(c1)CCC2 (stereo not shown) [CBK286326] | 99.6%
31 | CC(=O)c1cc(C(=O)Nc2ccc(Oc3ccc4c(c3)OCO4)cc2)cs1 [CBK286327] | 92.5%
32 | Cc1ccccc1C1(O)CCN(CC(O)c2ccc3c(c2)CCC3)CC1 (stereo not shown) [CBK286329] | 88%
33 | Cc1cccc(C2(O)CCN(CC(O)c3ccc4c(c3)CCC4)CC2)c1 (stereo not shown) [CBK286330] | 95.3%
34 | COc1ccc(C2(O)CCN(CC(O)c3ccc(C(C)(C)C)cc3)CC2)cc1 (stereo not shown) [CBK286333] | 90.6%
35 | COc1ccc(C2(O)CCN(CC(O)c3ccc4c(c3)CCC4)CC2)cc1 (stereo not shown) [CBK286334] | 95.9%
36 | COc1ccccc1C1(O)CCN(Cc2ccccc2OCc2ccc3c(c2)OCO3)CC1 [CBK286337] | 80.4%
37 | COc1cccc(C(O)CN2CCC3(CC2)CC(O)c2cc(C)ccc2O3)c1 (stereo not shown) [CBK286338] | 88.4%
38 | COc1cccc(C(O)CN2CCC3(CC2)CC(O)c2cc(Cl)c(C)cc2O3)c1 (stereo not shown) [CBK286342] | 99.3%
39 | Cc1[nH]c(=O)[nH]c(=O)c1CC(=O)N1CCCCC1CN1CCCCC1 (stereo not shown) [CBK286344] | 98.8%
40 | OC(CN1CCC2(CC1)CC(O)c1ccccc1O2)c1ccc(-c2ccccc2)cc1 (stereo not shown) [CBK286347] | 101%
